Data reported in patent publication US8470828B2, “Anellated pyridine compounds” (Hoffmann-La Roche Inc., priority 2010, dated 2013).

Columns and labels:
human D2 receptor = molecular target: T1, human D2 receptor (Homo sapiens, UniProt P14416); test: Radioligand binding to cloned human D2 receptor expressed in HEK-293 EBNA cells ([3H]-spiperone); conditions: HEK293 EBNA cell membranes, approximately 0.7 nM [3H]-spiperone, 1 h at RT
T1 construct: expressed in transfected cells; host or cells: HEK293 EBNA cells, transient transfection; membrane preparation
Procedure: (§1) HEK293 EBNA cells were transiently transfected with expression plasmids encoding for the human D2 or D3 or for the human 5-HT2A receptor, respectively. The cells were harvested 48 h post-transfection, washed three times with cold PBS and stored at −80° C. prior to use. The pellet was suspended in cold 50 mM Tris-HCl buffer comprising 10 mM EDTA (pH 7.4) and was homogenized with a Polytron (Kinematica A G, Basel, Switzerland) for 20-30 sec at 12.000 rpm. After centrifugation at 48.000×g for 30 min at 4° C., the pellet was resuspended in cold 10 mM Tris-HCl buffer comprising 0.1 mM EDTA (pH 7.4), homogenized, and centrifuged as above. This pellet was further resuspended in a smaller volume of ice cold 10 mM Tris-HCl buffer comprising 0.1 mM EDTA (pH 7.4) and homogenized with a Polytron for 20-30 sec at 12.000 rpm. The protein content of this homogenate was determined with the Bio-Rad (Bradford) Protein Assay (Biorad Laboratories GmbH, München, Germany) according to the instructions of the manufacturer using gamma globulin as the standard. This homogenate was stored at −80° C. in aliquots and thawed immediately prior to use.
(§2) Aliquots of membrane preparations were thawed at RT, resupended in assay buffer (D2, D3: 50 mM Tris-HCl, 120 mM NaCl, 5 mM MgCl2, 1 mM EDTA, 5 mM KCl, 1.5 mM CaCl2, pH=7.4; 5-HT2A: 50 mM Tris-HCl, 10 mM MgCl2, 1 mM EGTA, pH=7.4), homogenized with a Polytron for 20-30 sec at 12.000 rpm and adjusted to a final concentration of approximately 7.5 μg protein/well (D2, D3) and 15 μg protein/well (5-HT2A), respectively.
(§3) The binding affinity (Ki) of the compounds was determined using radioligand binding. Membranes were incubated in a total volume of 200 μl with a fixed concentration of radioligand (final concentration approximately 0.7 nM [^3H]-spiperone for D2, 0.5 nM [^3H]-spiperone for D3, and 1.1 nM [^3H]-ketanserin for 5-HT2A) and ten concentrations of test compound in ranging between 10 μM-0.1 nM for 1 h at RT. At the end of the incubation, the reaction mixtures were filtered on to unifilter 96-well white microplates with bonded GF/C filters (Packard BioScience, Zürich, Switzerland; preincubated for 1 h in 0.1% polyethylenimine (PEI) in assay buffer) with a Filtermate 196 harvester (Packard BioScience) and washed 3 times with cold assay buffer. The nonspecific binding was determined with equally composed reaction mixtures in the presence of 10 μM unlabelled spiperone. Per well 45 μl of Microscint 40 (Perkin Elmer, Schwerzenbach, Switzerland) was added, plates for sealed, shaken for 20 min and counted for 3 min on a Topcount Microplate Scintillation Counter (Can berra Packard S A, Zürich, Switzerland) with quenching correction.
(§4) The CPM value for each duplicate of a concentration of competing compound was averaged (y1), then the % specific binding was calculated according to the equation (((y1−non-specific)/(total binding−non-specific))×100). Graphs were plotted with the % specific binding using XLfit, a curve fitting program that iteratively plots the data using Levenberg-Marquardt algorithm. The single site competition analysis equation used was y=A+((B−A)/(1+((x/C)D))), where y is the % specific binding, A is the minimum y, B is the maximum y, C is the IC50, x is the log 10 of the concentration of the competing compound and D is the slope of the curve (the Hill Coefficient). […] The affinity constant (Ki) was calculated using the Cheng-Prusoff equation Ki=(IC50/1+([L]/Kd), where [L] is the concentration of radioligand and Kd is the dissociation constant of the radioligand at the receptor as determined by the saturation isotherm.

human 5-HT2A receptor = human 5-HT2A receptor (Homo sapiens, UniProt P28223); test: Radioligand binding to cloned human 5-HT2A receptor expressed in HEK-293 EBNA cells ([3H]-ketanserin)
Procedure: as §1, §2, §3, §4

human D3 receptor = human D3 receptor (Homo sapiens, UniProt P35462); test: Radioligand binding to cloned human D3 receptor expressed in HEK-293 EBNA cells ([3H]-spiperone)
human D3 receptor, sequence (P35462 whole entry): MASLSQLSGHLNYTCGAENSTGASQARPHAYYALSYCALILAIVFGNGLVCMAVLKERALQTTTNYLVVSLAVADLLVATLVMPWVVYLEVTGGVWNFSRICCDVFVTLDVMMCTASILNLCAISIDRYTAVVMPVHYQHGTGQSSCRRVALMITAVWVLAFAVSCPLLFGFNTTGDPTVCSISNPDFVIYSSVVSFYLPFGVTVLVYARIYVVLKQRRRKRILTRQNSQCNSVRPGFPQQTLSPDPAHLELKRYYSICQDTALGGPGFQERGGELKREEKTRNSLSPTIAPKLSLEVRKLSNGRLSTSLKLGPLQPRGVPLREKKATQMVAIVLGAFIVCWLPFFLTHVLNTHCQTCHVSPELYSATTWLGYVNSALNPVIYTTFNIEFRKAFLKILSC

human 5-HT2A receptor, sequence (P28223 whole entry): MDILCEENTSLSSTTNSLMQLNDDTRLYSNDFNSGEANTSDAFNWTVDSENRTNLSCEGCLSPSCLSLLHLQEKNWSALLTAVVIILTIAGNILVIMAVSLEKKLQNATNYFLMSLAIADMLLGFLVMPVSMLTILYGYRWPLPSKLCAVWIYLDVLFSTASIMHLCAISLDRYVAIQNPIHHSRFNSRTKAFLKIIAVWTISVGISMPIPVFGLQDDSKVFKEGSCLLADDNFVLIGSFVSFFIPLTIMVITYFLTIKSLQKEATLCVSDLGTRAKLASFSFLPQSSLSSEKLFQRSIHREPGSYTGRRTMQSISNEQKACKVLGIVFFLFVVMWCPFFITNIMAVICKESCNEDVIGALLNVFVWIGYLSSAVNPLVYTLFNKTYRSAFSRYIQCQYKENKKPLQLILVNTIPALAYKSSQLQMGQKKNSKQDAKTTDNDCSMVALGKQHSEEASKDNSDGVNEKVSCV
T1 sequence (P14416 whole entry): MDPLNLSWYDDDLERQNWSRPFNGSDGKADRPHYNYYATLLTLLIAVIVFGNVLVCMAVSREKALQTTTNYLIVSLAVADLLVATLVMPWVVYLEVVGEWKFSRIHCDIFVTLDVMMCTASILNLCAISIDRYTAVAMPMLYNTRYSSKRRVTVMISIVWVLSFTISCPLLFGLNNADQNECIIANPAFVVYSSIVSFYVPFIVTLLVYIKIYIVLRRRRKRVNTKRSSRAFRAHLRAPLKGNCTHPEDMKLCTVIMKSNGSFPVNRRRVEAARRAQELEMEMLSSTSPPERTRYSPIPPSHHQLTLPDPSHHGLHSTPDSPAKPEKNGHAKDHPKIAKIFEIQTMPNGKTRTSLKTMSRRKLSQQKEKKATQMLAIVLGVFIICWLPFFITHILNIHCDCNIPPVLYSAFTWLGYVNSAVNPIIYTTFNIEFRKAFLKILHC

COCC(=O)N[C@H]1CC[C@H](CCN2CCN(c3nccc4c3OCC4)CC2)CC1 [Example 20, trans-N-(4-{2-[4-(2,3-Dihydro-furo[2,3-c]pyridin-7-yl)-piperazin-1-yl]-ethyl}-cyclohexyl)-2-methoxy-acetamide]
Ki (human D2 receptor): 1280 nM
Ki (human 5-HT2A receptor): 32.9 nM
melting point: 126.5 °C
Ki (human D3 receptor): 12.8 nM

CS(=O)(=O)CC(=O)N[C@H]1CC[C@H](CCN2CCN(c3nccc4c3OCC4)CC2)CC1 [Example 21, trans-N-(4-{2-[4-(2,3-Dihydro-furo[2,3-c]pyridin-7-yl)-piperazin-1-yl]-ethyl}-cyclohexyl)-2-methanesulfonyl-acetamide]
Ki (human D2 receptor): 680 nM
Ki (human 5-HT2A receptor): 52.1 nM
melting point: 187 °C
Ki (human D3 receptor): 4.36 nM

O=C(N[C@H]1CC[C@H](CCN2CCN(c3nccc4c3OCC4)CC2)CC1)c1ccccc1 [Example 22, trans-N-(4-{2-[4-(2,3-Dihydro-furo[2,3-c]pyridin-7-yl)-piperazin-1-yl]-ethyl}-cyclohexyl)-benzamide]
Ki (human D2 receptor): 247 nM
Ki (human 5-HT2A receptor): 14.7 nM
melting point: 221 °C
Ki (human D3 receptor): 3.34 nM

O=C(N[C@H]1CC[C@H](CCN2CCN(c3nccc4c3OCC4)CC2)CC1)C1CCC1 [Example 23, Cyclobutanecarboxylic acid trans-(4-{2-[4-(2,3-dihydro-furo[2,3-c]pyridin-7-yl)-piperazin-1-yl]-ethyl}-cyclohexyl)-amide]
Ki (human D2 receptor): 276 nM
Ki (human 5-HT2A receptor): 30.3 nM
melting point: 186 °C
Ki (human D3 receptor): 5.89 nM

CC(C)CC(=O)N[C@H]1CC[C@H](CCN2CCN(c3nccc4c3OCC4)CC2)CC1 [Example 24, trans-N-(4-{2-[4-(2,3-Dihydro-furo[2,3-c]pyridin-7-yl)-piperazin-1-yl]-ethyl}-cyclohexyl)-3-methyl-butyramide]
Ki (human D2 receptor): 350 nM
Ki (human 5-HT2A receptor): 44.9 nM
melting point: 187 °C
Ki (human D3 receptor): 3.19 nM

O=C(CC1CCC1)N[C@H]1CC[C@H](CCN2CCN(c3nccc4c3OCC4)CC2)CC1 [Example 25, trans-2-Cyclobutyl-N-(4-{2-[4-(2,3-dihydro-furo[2,3-c]pyridin-7-yl)-piperazin-1-yl]-ethyl}-cyclohexyl)-acetamide]
Ki (human D2 receptor): 531 nM
Ki (human 5-HT2A receptor): 36.9 nM
melting point: 147.5 °C
Ki (human D3 receptor): 5.78 nM

CS(=O)(=O)N[C@H]1CC[C@H](CCN2CCN(c3nccc4c3OCC4)CC2)CC1 [Example 26, trans-N-(4-{2-[4-(2,3-Dihydro-furo[2,3-c]pyridin-7-yl)-piperazin-1-yl]-ethyl}-cyclohexyl)-methanesulfonamide]
Ki (human D2 receptor): 481 nM
Ki (human 5-HT2A receptor): 70.8 nM
melting point: 220 °C
Ki (human D3 receptor): 13.9 nM

CCS(=O)(=O)N[C@H]1CC[C@H](CCN2CCN(c3nccc4c3OCC4)CC2)CC1 [Example 27, Ethanesulfonic acid trans-(4-{2-[4-(2,3-dihydro-furo[2,3-c]pyridin-7-yl)-piperazin-1-yl]-ethyl}-cyclohexyl)-amide]
Ki (human D2 receptor): 367 nM
Ki (human 5-HT2A receptor): 60.5 nM
melting point: 190 °C
Ki (human D3 receptor): 11.3 nM

O=C(CO)N[C@H]1CC[C@H](CCN2CCN(c3nccc4c3OCC4)CC2)CC1 [Example 28, trans-N-(4-{2-[4-(2,3-Dihydro-furo[2,3-c]pyridin-7-yl)-piperazin-1-yl]-ethyl}-cyclohexyl)-2-hydroxy-acetamide]
Ki (human D2 receptor): 425 nM
Ki (human 5-HT2A receptor): 31.3 nM
melting point: 246 °C
Ki (human D3 receptor): 7.76 nM

O=C(CC1CC1)N[C@H]1CC[C@H](CCN2CCN(c3nccc4c3OCC4)CC2)CC1 [Example 30, trans-2-Cyclopropyl-N-(4-{2-[4-(2,3-dihydro-furo[2,3-c]pyridin-7-yl)-piperazin-1-yl]-ethyl}-cyclohexyl)-acetamide]
Ki (human D2 receptor): 184 nM
Ki (human 5-HT2A receptor): 33.3 nM
melting point: 197.5 °C
Ki (human D3 receptor): 3.34 nM

N#CCC(=O)N[C@H]1CC[C@H](CCN2CCN(c3nccc4c3OCC4)CC2)CC1 [Example 31, trans-2-Cyano-N-(4-{2-[4-(2,3-dihydro-furo[2,3-c]pyridin-7-yl)-piperazin-1-yl]-ethyl}-cyclohexyl)-acetamide]
Ki (human D2 receptor): 137 nM
Ki (human 5-HT2A receptor): 29.7 nM
melting point: 215.5 °C
Ki (human D3 receptor): 2.19 nM

O=C(C[C@H]1COCCO1)N[C@H]1CC[C@H](CCN2CCN(c3nccc4c3OCC4)CC2)CC1 [Example 32, trans-N-(4-{2-[4-(2,3-Dihydro-furo[2,3-c]pyridin-7-yl)-piperazin-1-yl]-ethyl}-cyclohexyl)-2-(S)[1,4]dioxan-2-yl-acetamide]
Ki (human D2 receptor): 822 nM
Ki (human 5-HT2A receptor): 18.9 nM
melting point: 181 °C
Ki (human D3 receptor): 10.6 nM

O=C(CC(F)(F)F)N[C@H]1CC[C@H](CCN2CCN(c3nccc4c3OCC4)CC2)CC1 [Example 33, trans-N-(4-{2-[4-(2,3-Dihydro-furo[2,3-c]pyridin-7-yl)-piperazin-1-yl]-ethyl}-cyclohexyl)-3,3,3-trifluoro-propionamide]
Ki (human D2 receptor): 276 nM
Ki (human 5-HT2A receptor): 44.2 nM
melting point: 216.5 °C
Ki (human D3 receptor): 4.29 nM

O=C(N[C@H]1CC[C@H](CCN2CCN(c3nccc4c3OCC4)CC2)CC1)C1CCOC1 (stereo partly drawn) [Example 34, Tetrahydro-furan-3-carboxylic acid trans-(4-{2-[4-(2,3-dihydro-furo[2,3-c]pyridin-7-yl)-piperazin-1-yl]-ethyl}-cyclohexyl)-amide]
Ki (human D2 receptor): 172 nM
Ki (human 5-HT2A receptor): 28 nM
melting point: 195 °C
Ki (human D3 receptor): 7.43 nM

O=C(C[C@@H]1COCCO1)N[C@H]1CC[C@H](CCN2CCN(c3nccc4c3OCC4)CC2)CC1 [Example 35, trans-N-(4-{2-[4-(2,3-Dihydro-furo[2,3-c]pyridin-7-yl)-piperazin-1-yl]-ethyl}-cyclohexyl)-2-(R)-[1,4]dioxan-2-yl-acetamide]
Ki (human D2 receptor): 384 nM
Ki (human 5-HT2A receptor): 36.1 nM
melting point: 181 °C
Ki (human D3 receptor): 8.28 nM

O=C(N[C@H]1CC[C@H](CCN2CCN(c3nccc4c3OCC4)CC2)CC1)C1CC1 [Example 36, trans-Cyclopropanecarboxylic acid (4-{2-[4-(2,3-dihydro-furo[2,3-c]pyridin-7-yl)-piperazin-1-yl]-ethyl}-cyclohexyl)-amide]
Ki (human D2 receptor): 102 nM
Ki (human 5-HT2A receptor): 32.3 nM
melting point: 193 °C
Ki (human D3 receptor): 7.49 nM

CC(C)C(=O)N[C@H]1CC[C@H](CCN2CCN(c3nccc4c3OCC4)CC2)CC1 [Example 37, trans-N-(4-{2-[4-(2,3-Dihydro-furo[2,3-c]pyridin-7-yl)-piperazin-1-yl]-ethyl}-cyclohexyl)-isobutyramide]
Ki (human D2 receptor): 265 nM
Ki (human 5-HT2A receptor): 34.8 nM
melting point: 203.5 °C
Ki (human D3 receptor): 7.25 nM

O=C(N[C@H]1CC[C@H](CCN2CCN(c3nccc4c3OCC4)CC2)CC1)c1ccc(N2CCOCC2)cc1 [Example 38, trans-N-(4-{2-[4-(2,3-Dihydro-furo[2,3-c]pyridin-7-yl)-piperazin-1-yl]-ethyl}-cyclohexyl)-4-morpholin-4-yl-benzamide]
Ki (human D2 receptor): 2280 nM
Ki (human 5-HT2A receptor): 16.6 nM
melting point: 241.5 °C
Ki (human D3 receptor): 15.5 nM

O=C(N[C@H]1CC[C@H](CCN2CCN(c3nccc4c3OCC4)CC2)CC1)c1ccnc2ccccc12 [Example 39, Quinoline-4-carboxylic acid trans-(4-{2-[4-(2,3-dihydro-furo[2,3-c]pyridin-7-yl)-piperazin-1-yl]-ethyl}-cyclohexyl)-amide]
D2 Ki (human D2 receptor): inactive
Ki (human 5-HT2A receptor): 21.9 nM
melting point: 222 °C
Ki (human D3 receptor): 6.22 nM

O=C(N[C@H]1CC[C@H](CCN2CCN(c3nccc4c3OCC4)CC2)CC1)c1ccc(F)cc1 [Example 40, trans-N-(4-{2-[4-(2,3-Dihydro-furo[2,3-c]pyridin-7-yl)-piperazin-1-yl]-ethyl}-cyclohexyl)-4-fluoro-benzamide]
Ki (human D2 receptor): 1650 nM
Ki (human 5-HT2A receptor): 22.1 nM
melting point: 235.5 °C
Ki (human D3 receptor): 8.93 nM

CN(C)C(=O)CCC(=O)N[C@H]1CC[C@H](CCN2CCN(c3nccc4c3OCC4)CC2)CC1 [Example 41, trans-N-(4-{2-[4-(2,3-Dihydro-furo[2,3-c]pyridin-7-yl)-piperazin-1-yl]-ethyl}-cyclohexyl)-N′,N′-dimethyl-succinamide]
Ki (human D2 receptor): 2350 nM
Ki (human 5-HT2A receptor): 63.8 nM
melting point: 177.5 °C
Ki (human D3 receptor): 33.4 nM

CC(C)CCC(=O)N[C@H]1CC[C@H](CCN2CCN(c3nccc4c3OCC4)CC2)CC1 [Example 42, trans-4-Methyl-pentanoic acid (4-{2-[4-(2,3-dihydro-furo[2,3-c]pyridin-7-yl)-piperazin-1-yl]-ethyl}-cyclohexyl)-amide]
Ki (human D2 receptor): 879 nM
Ki (human 5-HT2A receptor): 44.4 nM
melting point: 175 °C
Ki (human D3 receptor): 15.5 nM

Cc1cc(CC(=O)N[C@H]2CC[C@H](CCN3CCN(c4nccc5c4OCC5)CC3)CC2)on1 [Example 43, trans-N-(4-{2-[4-(2,3-Dihydro-furo[2,3-c]pyridin-7-yl)-piperazin-1-yl]-ethyl}-cyclohexyl)-2-(3-methyl-isoxazol-5-yl)-acetamide]
Ki (human D2 receptor): 3710 nM
Ki (human 5-HT2A receptor): 41.2 nM
melting point: 222.5 °C
Ki (human D3 receptor): 2.68 nM

O=C(N[C@H]1CC[C@H](CCN2CCN(c3nccc4c3OCC4)CC2)CC1)C1(O)CC1 [Example 44, 1-Hydroxy-cyclopropanecarboxylic acid trans-(4-{2-[4-(2,3-dihydro-furo[2,3-c]pyridin-7-yl)-piperazin-1-yl]-ethyl}-cyclohexyl)-amide]
Ki (human D2 receptor): 793 nM
Ki (human 5-HT2A receptor): 9.91 nM
melting point: 248.5 °C
Ki (human D3 receptor): 16.8 nM

CCCC(=O)N[C@H]1CC[C@H](CCN2CCN(c3nccc4c3OCC4)CC2)CC1 [Example 45, trans-N-(4-{2-[4-(2,3-Dihydro-furo[2,3-c]pyridin-7-yl)-piperazin-1-yl]-ethyl}-cyclohexyl)-butyramide]
Ki (human D2 receptor): 731 nM
Ki (human 5-HT2A receptor): 50.1 nM
melting point: 183 °C
Ki (human D3 receptor): 10.1 nM
